pIC50: −log10 of the molar value. In brackets after ≈: the same amount, converted by molar mass. Activity calls are given as the source filed them. The rule behind the calls is not given here.
Columns and labels:
[1] = target: T1, Nuclear receptor ROR-gamma (Homo sapiens) (UniProt P51449); experiment: Inverse agonist activity at RORgammaT in human PBMC cells assessed as reduction in IL22-positive T cells in Th17 polarization at 10 nM incubated for 48 hrs; assay type: cell-based
T1 sequence (whole entry): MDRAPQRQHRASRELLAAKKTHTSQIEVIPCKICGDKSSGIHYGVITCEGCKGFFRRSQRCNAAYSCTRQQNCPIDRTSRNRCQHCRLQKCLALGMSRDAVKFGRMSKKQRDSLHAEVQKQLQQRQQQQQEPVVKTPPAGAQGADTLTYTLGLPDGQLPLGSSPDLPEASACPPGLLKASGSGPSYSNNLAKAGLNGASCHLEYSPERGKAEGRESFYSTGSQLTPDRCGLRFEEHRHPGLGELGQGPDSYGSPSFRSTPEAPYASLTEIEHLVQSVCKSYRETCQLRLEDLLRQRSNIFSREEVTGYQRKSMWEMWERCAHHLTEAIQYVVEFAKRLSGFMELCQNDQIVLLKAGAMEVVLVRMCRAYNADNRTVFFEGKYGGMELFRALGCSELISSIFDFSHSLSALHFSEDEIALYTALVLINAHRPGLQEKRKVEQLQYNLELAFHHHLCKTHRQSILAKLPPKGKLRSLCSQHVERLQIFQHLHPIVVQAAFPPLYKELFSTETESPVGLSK

[2] = Apparent permeability across apical to basolateral side in MDCKII-MDR1 cells at 10 uM incubated for 90 mins by LC-MS/MS analysis; settings: dog, mdck-mdr1, 1.5 h
[3] = Apparent permeability across apical to basolateral side in human Caco-2 cells measured after 90 mins by LC-MS/MS analysis; settings: caco-2, 1.5 h
[4] = target: T1, Nuclear receptor ROR-gamma (Homo sapiens); experiment: Inverse agonist activity at RORgammaT in human PBMC cells assessed as reduction in CD4-positive IL17A-positive cells in Th17 polarization at 10 nM incubated for 48 hrs relative to control; assay type: cell-based; set-up: scale not given: the % may be the effect or the level left
PBMC [5] = experiment: Cytotoxicity against human PBMC cells assessed as cell death by flow cytometry method; assay type: toxicity, cell-based
[6] = Efflux ratio of apparent permeability from apical to basolateral side over basolateral to apical side in MDCKII-MDR1 cells at 10 uM incubated for 90 mins in presence of cyclosporine A by LC-MS/MS analysis; settings: dog, mdck-mdr1, 1.5 h
[7] = target: T2, Nuclear receptor ROR-gamma (Homo sapiens, UniProt P51449); experiment: biochemical; assay type: cell-based, Insect cell
T2 sequence (P51449 whole entry): T1 sequence (whole entry)

[8] = target: T1, Nuclear receptor ROR-gamma (Homo sapiens); settings: HEK293T, filed as inverse agonist, dose 0.004-1000 nM
PBMC [9] = experiment: Induction of apoptosis in human PBMC cells by flow cytometry method; assay type: toxicity, cell-based
[10] = Substrate activity at P-gp in MDCKII-MDR1 cells assessed as efflux ratio of apparent permeability from apical to basolateral side over basolateral to apical side at 10 uM incubated for 90 mins by LC-MS/MS analysis; settings: dog, mdckii-mdr1, 1.5 h
physchem [11] = settings: PBS, pH 7.4
[12] = target: T1, Nuclear receptor ROR-gamma (Homo sapiens); experiment: Inverse agonist activity at RORgammaT in human PBMC cells assessed as reduction in CD4-positive IL21-positive cells in Th17 polarization at 10 nM incubated for 48 hrs relative to control; assay type: cell-based; set-up: scale not given: the % may be the effect or the level left
[13] = Lipophilicity, logD of the compound at pH 7.4; settings: buffer
[14] = target: T1, Nuclear receptor ROR-gamma (Homo sapiens); experiment: Inverse agonist activity at RORgammaT in human PBMC cells assessed as reduction in IFNgamma-positive T cells in Th17 polarization at 10 nM incubated for 48 hrs; assay type: cell-based
PBMC [15] = experiment: Cytotoxicity against human PBMC cells assessed as increase in cell proliferation by flow cytometry method; assay type: toxicity, cell-based
PBMC [16] = experiment: Cytotoxicity against human PBMC cells assessed as reduction in cell viability by flow cytometry method; assay type: toxicity, cell-based
physchem [17] = settings: citrate buffer, pH 5
physchem [18] = settings: fasted state simulated gastric fluid, pH 1.6
[19] = buffer, pH 7.4, 2 h

Compound	Papp [2]	Papp [3]	pIC50 [7]	deltaG [8] [kcal/mol]	solubility kinetic at 2 h (physchem [11]) [µM]	logD [13]	solubility kinetic at 2 h (physchem [17]) [µM]	solubility kinetic at 2 h (physchem [18]) [µM]	also measured
CSc1ncc(Cl)c(C(=O)Nc2sc3c(c2C(=O)NCc2ccccc2)CCCC3)n1	8 10^-6 cm/s	4.2 10^-6 cm/s	9.40	-11.6	≤ 1	5.45	–	–	Activity [1]: inactive; Activity [4]: 20%; Activity (PBMC [5]): Non-Toxic; Ratio [6]: 0.3; Activity (PBMC [9]): Non-Toxic; Ratio [10]: 0.3; Activity [12]: 20%; Activity [14]: inactive; Activity (PBMC [15]): Non-Toxic; Activity (PBMC [16]): Non-Toxic
CC1CCc2c(sc(NC(=O)c3ccccc3F)c2C(=O)N2CCN(C)CC2)C1 (stereo not drawn)	28.9 10^-6 cm/s	28.2 10^-6 cm/s	–	–	27.7 (≈ 11.5 µg/mL)	3.59	349 (≈ 145 µg/mL)	≥ 400	–
CN1CCN(CC(=O)Nc2sc3c(c2C(=O)NCc2ccccc2)CCCC3)CC1	6.8 10^-6 cm/s	4.6 10^-6 cm/s	8.93	-12.5	99.3 (≈ 42.4 µg/mL)	3.06	357 (≈ 152 µg/mL)	≥ 400	Ratio [6]: 1.2; Ratio [10]: 1.1
Cc1ccnc(SCC(=O)Nc2sc3c(c2C(=O)NCc2ccccc2)CCCC3)n1	–	–	9.16	-10.2	3.23 (≈ 1.46 µg/mL)	4.92	–	–	–
O=C(CN1CCCCC1)Nc1sc2c(c1C(=O)NCc1ccccc1)CCCC2	–	–	8.67	-10.3	19.7 (≈ 8.11 µg/mL)	4.33	–	–	–
CN1CCN(C(=O)c2c(NC(=O)c3ccccc3F)sc3c2CCC(C(C)(C)C)C3)CC1 (stereo not drawn)	–	–	–	–	10.6 (≈ 4.83 µg/mL)	5.06	–	–	–
CSc1ncc(Cl)c(C(=O)Nc2sc3c(c2C(=O)NC2CCS(=O)(=O)C2)CCC(C)C3)n1 (stereo not drawn)	2.5 10^-6 cm/s	1.4 10^-6 cm/s	8.35	-9.75	40.2 (≈ 20.7 µg/mL)	3.28	9.72 (≈ 5.01 µg/mL)	1.7 (≈ 0.876 µg/mL)	Ratio [6]: 1.1; Ratio [10]: 8.7
Cn1ccnc1SCC(=O)Nc1sc2c(c1C(=O)NCc1ccccc1)CCCC2	27.8 10^-6 cm/s	18 10^-6 cm/s	–	–	8.05 (≈ 3.55 µg/mL)	4.44	13.6 (≈ 5.97 µg/mL)	267 (≈ 118 µg/mL)	–
O=C(NCc1ccccc1)c1c(NC(=O)C(F)(F)F)sc2c1CCCC2	–	–	8.68	-10.2	28.8 (≈ 11 µg/mL)	4.43	–	–	–
CCc1ccc(N(CC(C)C)S(=O)(=O)c2ccc(OCC3CCOCC3)c(CO)c2)cc1 [GSK2981278]	–	–	8.77	–	–	4.11	–	–	Kinetic_solubility [19]: Insoluble
CCC1CCc2c(sc(NC(=O)c3ccnn3C)c2C(=O)Nc2ccccc2C)C1 (stereo not drawn)	3.2 10^-6 cm/s	1.8 10^-6 cm/s	–	–	≤ 1	4.72	8.13 (≈ 3.44 µg/mL)	2.8 (≈ 1.18 µg/mL)	–
Cc1cnc(S(C)(=O)=O)nc1C(=O)Nc1sc2c(c1C(=O)c1ccccc1)CCCC2	–	–	7.78	-10.1	≤ 1	3.94	–	–	–
CC1(C)CCc2c(sc(NC(=O)c3cnccn3)c2C(=O)N2CCOCC2)C1	–	–	–	–	34.8 (≈ 13.9 µg/mL)	3	–	–	–

The next lines start with results.

Papp [2]	Papp [3]	pIC50 [7]	deltaG [8] [kcal/mol]	solubility kinetic at 2 h (physchem [11]) [µM]	logD [13]	solubility kinetic at 2 h (physchem [17]) [µM]	solubility kinetic at 2 h (physchem [18]) [µM]	Compound	also measured
–	–	–	–	90.9 (≈ 32.2 µg/mL)	2.85	–	–	C[C@@H](C#N)NC(=O)c1c(NC(=O)c2cccnc2)sc2c1CCCC2	–
–	–	–	–	27 (≈ 10.7 µg/mL)	4.45	23.7 (≈ 9.43 µg/mL)	≥ 200	C[C@@H]1CCN(C(=O)c2c(NC(=O)c3cccnc3)sc3c2CCCC3)[C@H](C)C1 (single isomer, unassigned)	–
–	–	7.71	-10.1	18.3 (≈ 6.67 µg/mL)	4.15	–	–	O=C(Nc1sc2c(c1C(=O)c1ccccc1)CCCC2)c1cnccn1	–
–	–	7.24	-7.29	84.7 (≈ 33.8 µg/mL)	0.4	–	–	O=C(Nc1sc2c(c1C(=O)NCC1CCNCC1)CCCC2)c1cccnc1	–
29 10^-6 cm/s	34.2 10^-6 cm/s	8.45	-7.57	31.3 (≈ 11.6 µg/mL)	3.68	392 (≈ 145 µg/mL)	≥ 400	CC1CCCN1C(=O)c1c(NC(=O)c2cccnc2)sc2c1CCCC2 (stereo not drawn)	Ratio [6]: 0.8; Ratio [10]: 0.8
5.2 10^-6 cm/s	4.4 10^-6 cm/s	7.34	-6.16	79.3 (≈ 30.6 µg/mL)	2.6	365 (≈ 141 µg/mL)	330 (≈ 127 µg/mL)	O=C(Nc1sc2c(c1C(=O)N1CCC(CO)C1)CCCC2)c1cccnc1 (stereo not drawn)	Ratio [6]: 1.4; Ratio [10]: 4.7
1.3 10^-6 cm/s	1.2 10^-6 cm/s	–	–	12.4 (≈ 5.29 µg/mL)	4.57	3.02 (≈ 1.29 µg/mL)	364 (≈ 155 µg/mL)	CC1CCN(CC(=O)Nc2sc3c(c2C(=O)NCc2ccccc2)CCCC3)CC1	–
–	–	–	–	32.9 (≈ 12.6 µg/mL)	4.05	–	–	CCC1CCN(C(=O)c2c(NC(=O)c3cccnc3)sc3c2CCCC3)C1 (stereo not drawn)	–
–	–	8.46	-13.3	93.6 (≈ 37.1 µg/mL)	1.62	–	–	Cn1cnc(CNC(=O)c2c(NC(=O)c3cccnc3)sc3c2CCCC3)n1	–
